Reference: ChEMBL document CHEMBL1201862, “PubChem BioAssay data set” (2004)
Where “and” joins values, the source holds several entries; their conditions need not be identical. Equal values may be shown once.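 Assay format: 96-well plates, 48-hour exposure. GI50: concentration for 50% inhibition of growth.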 Calls of active or inactive are those of the source. No stated cut-off is given here; in the data, active = GI50 up to about 1.1 µM and inactive = higher.

What was measured:
Assay in all cases: NCI anticancer screen, dose series, 48 h
MDA-MB-231 = tested on: MDA-MB-231
UACC-257 = tested on: UACC-257
MDA-N = tested on: MDA-N
SW-620 = tested on: SW-620
MOLT-4 = tested on: MOLT-4
DU-145 = tested on: DU-145
SK-MEL-28 = tested on: SK-MEL-28
RXF 393 = tested on: RXF 393
SK-OV-3 = tested on: SK-OV-3
NCI-H522 = tested on: NCI-H522
A498 = tested on: A498
OVCAR-5 = tested on: OVCAR-5
U-251 = tested on: U-251
UO-31 = tested on: UO-31
786-0 = tested on: 786-0
SK-MEL-2 = tested on: SK-MEL-2
SK-MEL-5 = tested on: SK-MEL-5
Malme-3M = tested on: Malme-3M
IGROV-1 = tested on: IGROV-1
NCI-H226 = tested on: NCI-H226

Measured: GI50

CCC(C)C1=C(O)[N+]2([O-])Oc3ccc(-c4c(O)c(O)c(-c5ccc(OC(C)=O)cc5)c(OC(C)=O)c4OC(C)=O)cc3OC2(C(C)CC)C(=O)N1O (stereo not given)
inactive: MDA-MB-231 > 50 µM | UACC-257 > 50 µM | MDA-N 36.3 µM and 24.3 µM | SW-620 24.2 µM | MOLT-4 23.7 µM and 14.4 µM | DU-145 > 50 µM | SK-MEL-28 46.1 µM | RXF 393 > 50 µM | SK-OV-3 > 50 µM | NCI-H522 14.4 µM and 16.1 µM | A498 19.3 µM | OVCAR-5 > 50 µM | U-251 > 50 µM | UO-31 > 50 µM | 786-0 > 50 µM | SK-MEL-2 > 50 µM | SK-MEL-5 > 50 µM and 29.2 µM | Malme-3M 34.6 µM and 45.2 µM | IGROV-1 25.6 µM and 17.1 µM

CCN1C(=O)C(=C/C=C/c2ccc(N(CC)CC)cc2)C(=O)N(CC)C1=S
inactive: MDA-MB-231 > 100 µM | UACC-257 > 100 µM | MDA-N 74.8 µM | SW-620 > 100 µM | NCI-H226 93.3 µM | MOLT-4 33.9 µM | DU-145 > 100 µM | SK-MEL-28 > 100 µM | RXF 393 > 100 µM | SK-OV-3 > 100 µM | OVCAR-5 > 100 µM | U-251 > 100 µM | UO-31 > 100 µM | 786-0 > 100 µM | SK-MEL-2 68.5 µM | SK-MEL-5 > 100 µM | IGROV-1 > 100 µM

COc1cc(C2SCC(=O)N2c2ccc(Cl)cc2)cc(I)c1O (stereo not given)
inactive: MDA-MB-231 > 100 µM | UACC-257 11.8 µM | MDA-N 3.37 µM | SW-620 > 100 µM | NCI-H226 > 90.2 µM | MOLT-4 21.9 µM | DU-145 > 100 µM | SK-MEL-28 22 µM | RXF 393 > 100 µM | SK-OV-3 > 100 µM | NCI-H522 55.8 µM | OVCAR-5 > 100 µM | U-251 > 100 µM | UO-31 > 100 µM | 786-0 > 100 µM | SK-MEL-2 23.9 µM | SK-MEL-5 6.52 µM | Malme-3M > 100 µM | IGROV-1 > 100 µM

CC(=O)N1CCN(CCCCN2c3ccccc3Sc3cc(N=[N+]=[N-])ccc32)CC1
inactive: MDA-MB-231 13.8 µM | UACC-257 24.5 µM | MDA-N 16.7 µM | SW-620 15.5 µM | NCI-H226 17.6 µM | MOLT-4 8.47 µM | DU-145 18.1 µM | SK-MEL-28 18.1 µM | RXF 393 9.1 µM | NCI-H522 13 µM | OVCAR-5 13.7 µM | U-251 14.4 µM | UO-31 11.3 µM | 786-0 15.6 µM | Malme-3M 17.1 µM | IGROV-1 15.2 µM

CCOC(=O)n1[nH]c(=O)n(-c2ccccc2)c1=O
inactive: MDA-MB-231 > 100 µM | UACC-257 > 100 µM | MDA-N > 100 µM | SW-620 > 100 µM | NCI-H226 > 100 µM | MOLT-4 > 100 µM | DU-145 > 100 µM | SK-MEL-28 > 100 µM | RXF 393 > 100 µM | SK-OV-3 > 100 µM | OVCAR-5 > 100 µM | U-251 > 100 µM | UO-31 > 100 µM | 786-0 > 100 µM | SK-MEL-2 > 100 µM | SK-MEL-5 > 100 µM | Malme-3M > 100 µM | IGROV-1 > 100 µM

O=C(/C(=C\I)c1ccccc1)c1ccccc1
inactive: MDA-MB-231 3.94 µM | UACC-257 4.55 µM | SW-620 4.57 µM | NCI-H226 24.6 µM | MOLT-4 18.3 µM | DU-145 7.16 µM | SK-MEL-28 2.16 µM | RXF 393 5.35 µM | SK-OV-3 17.1 µM | NCI-H522 4.86 µM | A498 16.5 µM | OVCAR-5 17.5 µM | U-251 2.75 µM | UO-31 7.78 µM | 786-0 3.52 µM | SK-MEL-2 7.8 µM | SK-MEL-5 17.3 µM | Malme-3M 7.31 µM | IGROV-1 10.8 µM

C=C(C)C#CC(O)(C(=O)OC1CCN(C)CC1)C(C)C (stereo not given)
inactive: MDA-MB-231 > 100 µM | UACC-257 > 100 µM | MDA-N > 100 µM | SW-620 > 100 µM | NCI-H226 > 100 µM | MOLT-4 > 100 µM | DU-145 > 100 µM | SK-MEL-28 > 100 µM | RXF 393 > 100 µM | SK-OV-3 > 100 µM | NCI-H522 > 100 µM | OVCAR-5 > 100 µM | U-251 > 100 µM | UO-31 > 100 µM | 786-0 > 100 µM | SK-MEL-5 > 100 µM | Malme-3M > 100 µM | IGROV-1 > 100 µM

O=C1CC[C@@]23CC(=O)O[C@@H]2CCCC3C1 (stereo not given in full)
inactive: MDA-MB-231 > 100 µM | UACC-257 > 100 µM | MDA-N > 100 µM | SW-620 > 100 µM | NCI-H226 > 100 µM | MOLT-4 > 100 µM | DU-145 > 100 µM | SK-MEL-28 > 100 µM | RXF 393 18.5 µM | SK-OV-3 > 100 µM | NCI-H522 > 100 µM | OVCAR-5 > 100 µM | U-251 > 100 µM | UO-31 > 100 µM | 786-0 > 100 µM | SK-MEL-2 > 100 µM | SK-MEL-5 > 100 µM | Malme-3M > 100 µM | IGROV-1 > 100 µM

COC(=O)c1ccc(Oc2nc3ccccc3nc2-c2cccs2)cc1
inactive: MDA-MB-231 21.3 µM | UACC-257 > 100 µM | MDA-N > 100 µM | SW-620 46.8 µM | MOLT-4 > 100 µM | DU-145 > 100 µM | SK-MEL-28 > 100 µM | RXF 393 4.79 µM | SK-OV-3 35.5 µM | NCI-H522 76 µM | OVCAR-5 > 100 µM | UO-31 > 100 µM | 786-0 34.4 µM | SK-MEL-2 > 100 µM | SK-MEL-5 > 100 µM | Malme-3M > 100 µM | IGROV-1 39.3 µM

O=C1C(Cl)C2(CC(/C=C/c3ccccc3O)=NN2c2cccc(S(=O)(=O)O)c2)N1c1nc2ccccc2s1 (stereo not given)
inactive: MDA-MB-231 22.5 µM | UACC-257 16.1 µM | MDA-N 18.6 µM | SW-620 17.4 µM | NCI-H226 18.9 µM | MOLT-4 17.1 µM | SK-MEL-28 24.2 µM | RXF 393 37.6 µM | NCI-H522 3.57 µM | A498 20.9 µM | OVCAR-5 22.3 µM | U-251 16.7 µM | UO-31 13.1 µM | 786-0 15.6 µM | SK-MEL-2 16.8 µM | SK-MEL-5 12.1 µM | Malme-3M 13.8 µM | IGROV-1 14.9 µM

COc1ccc(-c2nc(N(C)C)c3ccccc3n2)cc1
inactive: MDA-MB-231 28.4 µM | UACC-257 16.4 µM | MDA-N 14.9 µM | SW-620 9.48 µM | NCI-H226 3.31 µM | MOLT-4 3.91 µM | SK-MEL-28 14.9 µM | RXF 393 9.29 µM | SK-OV-3 15.8 µM | NCI-H522 7.96 µM | OVCAR-5 14 µM | U-251 20.5 µM | UO-31 3.36 µM | 786-0 10.9 µM | SK-MEL-2 20.5 µM | SK-MEL-5 13.1 µM | Malme-3M 16.8 µM | IGROV-1 9.55 µM

Cn1c2ccccc2n2c3ccccc3c(=S)c(C#N)c12
inactive: UACC-257 > 100 µM | MDA-N > 100 µM | SW-620 > 100 µM | NCI-H226 > 100 µM | MOLT-4 > 100 µM | DU-145 > 100 µM | SK-MEL-28 > 100 µM | RXF 393 > 100 µM | SK-OV-3 > 100 µM | NCI-H522 > 100 µM | A498 > 100 µM | OVCAR-5 > 100 µM | U-251 > 100 µM | UO-31 > 100 µM | 786-0 92.3 µM | SK-MEL-2 > 100 µM | SK-MEL-5 > 100 µM | IGROV-1 > 100 µM

Cc1ccc(S(=O)(=O)Nn2c(O)c(C#N)c(-c3ccc(Cl)cc3)c(C#N)c2=O)cc1
inactive: MDA-MB-231 > 100 µM | UACC-257 > 100 µM | MDA-N > 100 µM | SW-620 > 100 µM | NCI-H226 > 100 µM | MOLT-4 > 100 µM | SK-MEL-28 > 100 µM | RXF 393 > 100 µM | SK-OV-3 > 100 µM | NCI-H522 > 100 µM | A498 > 100 µM | OVCAR-5 > 100 µM | U-251 > 100 µM | 786-0 > 100 µM | SK-MEL-2 > 100 µM | SK-MEL-5 > 100 µM | Malme-3M > 100 µM | IGROV-1 > 100 µM

CN(C)c1ccc(/C=C2\CCCCCC2=O)cc1
inactive: MDA-MB-231 32.7 µM | UACC-257 74.3 µM | MDA-N > 100 µM | SW-620 > 100 µM | MOLT-4 > 100 µM | DU-145 > 100 µM | SK-MEL-28 > 100 µM | RXF 393 > 100 µM | SK-OV-3 > 100 µM | A498 > 100 µM | OVCAR-5 > 100 µM | UO-31 50.6 µM | 786-0 87.1 µM | SK-MEL-2 > 100 µM | SK-MEL-5 56 µM | Malme-3M > 100 µM | IGROV-1 > 100 µM

COC(=O)NCCc1n[nH]c2c1C(=O)C=C(Nc1ccccc1OC)C2=O
inactive: MDA-MB-231 27 µM | UACC-257 17 µM | MDA-N 18.1 µM | SW-620 20.8 µM | MOLT-4 21.8 µM | DU-145 42.4 µM | SK-MEL-28 38.4 µM | RXF 393 94 µM | SK-OV-3 > 100 µM | NCI-H522 24.1 µM | A498 31.7 µM | OVCAR-5 61.4 µM | U-251 24.8 µM | UO-31 42.2 µM | 786-0 38 µM | SK-MEL-2 22.2 µM | SK-MEL-5 13.7 µM | Malme-3M 14.2 µM | IGROV-1 26.5 µM
